In patent publication US6673549B1, “Genes expressed in C3A liver cell cultures treated with steroids” (Incyte Corporation, priority 2000, dated 2004):
Several values for one entry are separate records, joined by “and”; a condition that tells them apart may be missing. Identical values can stand only once.

Test system: human C3A liver cells
Assay: Microarray differential gene expression in human C3A liver cell cultures treated with steroids
Format: cell-based
Excerpt: Incyte clones represent template sequences derived from the LWESEQ GOLD assembled human sequence database (Incyte Genomics). In cases where more than one clone was available for a particular template, the 5′-most clone in the template was used on the microarray. The HUMAN GENOME GEM series 1-4 microarrays (Incyte Genomics) contain 28,626 array elements which represent 10,068 annotated clusters and 18,558 unannotated clusters. For the UNIGEM series microarrays (Incyte Genomics), Incyte clones were mapped to non-redundant Unigene clusters (Unigene database (build 46), NCBI; Shuler (1997) J Mol Med 75:694-698), and the 5′ clone with the strongest BLAST alignment (at least 90% identity and 100 bp overlap) was chosen, verified, and used in the construction of the microarray. The UNIGEM V microarray (Incyte Genomics) contains 7075 array elements which represent 4610 annotated genes and 2,184 unannotated clusters.
To construct microarrays, cDNAs were amplified from bacterial cells using primers complementary to vector sequences flanking the cDNA insert. […] Amplified cDNAs were then purified using […]-400 columns (APB). Purified cDNAs were immobilized on polymer-coated glass slides. Glass microscope slides (Corning, Corning N.Y.) were cleaned by ultrasound in 0.1% SDS and acetone, with extensive distilled water washes between and after treatments. Glass slides were etched in 4% hydrofluoric acid (VWR Scientific Products, West Chester Pa.), washed thoroughly in distilled water, and coated with 0.05% aminopropyl silane (Sigma Aldrich) in 95% ethanol. Coated slides were cured in a 110° C. oven. cDNAs were applied to the coated glass substrate using a procedure described in U.S. Pat. No. 5,807,522. One microliter of the cDNA at an average concentration of 100 ng/μl was loaded into the open capillary printing element by a high-speed robotic apparatus which then deposited about 5 nl of cDNA per slide.
Microarrays were UV-crosslinked using a […] UV-crosslinker (Stratagene), and then washed at room temperature once in 0.2% SDS and three times in distilled water. Non-specific binding sites were blocked by incubation of microarrays in 0.2% casein in phosphate buffered saline (Tropix, Bedford Mich.) for 30 minutes at 60° C. followed by washes in 0.2% SDS and distilled water as before.
In all cases, mRNA from untreated early confluent C3A cells were prepared in parallel as described below.
Cells were harvested and lysed in 1 ml of TRIZOL reagent (5×10^6 cells/ml; Life Technologies). Lysates were vortexed thoroughly, incubated at room temperature for 2-3 minutes, and extracted with 0.5 ml chloroform. The extract was mixed, incubated at room temperature for 5 minutes, and centrifuged at 15,000 rpm for 15 minutes at 4° C. The aqueous layer was collected, and an equal volume of isopropanol was added. Samples were mixed, incubated at room temperature for 10 minutes, and centrifuged at 15,000 rpm for 20 minutes at 4° C. The supernatant was removed, and the RNA pellet was washed with 1 ml of 70% ethanol, centrifuged at 15,000 rpm at 4° C., and resuspended in RNAse-free water. The concentration of the RNA was determined by measuring the optical density at 260 nm.
Poly(A) RNA was prepared using an OLIGOTEX mRNA kit (Qiagen) with the following modifications: OLIGOTEX beads were washed in tubes instead of on spin columns, resuspended in elution buffer, and then loaded onto spin columns to recover mRNA. To obtain maximum yield, the mRNA was eluted twice.
Each poly(A) RNA sample was reverse transcribed using MMLV reverse-transcriptase, 0.05 pg/μl oligo-d(T) primer (21mer), 1× first strand buffer, 0.03 units/ul RNAse inhibitor, 500 uM dATP, 500 uM dGTP, 500 uM dTTP, 40 uM dCTP, and 40 uM either dCTP-Cy3 or dCTP-Cy5 (APB).

C[C@@H]1C[C@H]2[C@@H]3CCC4=CC(=O)C=C[C@]4(C)[C@@]3(F)[C@@H](O)C[C@]2(C)[C@@]1(O)C(=O)CO [dexomethasone]
Ave DE [log2] (C3A treated with steroid) (Clone ID 2947188): −0.98 log2

C[C@H]1C[C@H]2[C@@H]3CCC4=CC(=O)C=C[C@]4(C)[C@@]3(F)[C@@H](O)C[C@]2(C)[C@@]1(O)C(=O)CO [betamethasone]
Ave DE [log2] (C3A treated with steroid) (Clone ID 220378): 0.57 log2 | Ave DE [log2] (C3A treated with steroid) (Clone ID 615776): 1.11 log2 | Ave DE [log2] (C3A treated with steroid) (Clone ID 619447): 0.33 log2 | Ave DE [log2] (C3A treated with steroid) (Clone ID 686993): 0.51 log2 | Ave DE [log2] (C3A treated with steroid) (Clone ID 689296): 1.12 log2 | Ave DE [log2] (C3A treated with steroid) (Clone ID 1323327): 1.00 log2 | Ave DE [log2] (C3A treated with steroid) (Clone ID 1329625): 0.91 log2 | Ave DE [log2] (C3A treated with steroid) (Clone ID 1496011): 0.60 log2 | Ave DE [log2] (C3A treated with steroid) (Clone ID 1501410): −0.98 log2 | Ave DE [log2] (C3A treated with steroid) (Clone ID 1600180): 0.77 log2 | Ave DE [log2] (C3A treated with steroid) (Clone ID 1798594): 1.37 log2 | Ave DE [log2] (C3A treated with steroid) (Clone ID 1816768): 0.24 log2 | Ave DE [log2] (C3A treated with steroid) (Clone ID 1824860): 0.70 log2 | Ave DE [log2] (C3A treated with steroid) (Clone ID 1857044): 0.89 log2 | Ave DE [log2] (C3A treated with steroid) (Clone ID 1951845): 1.02 log2 | Ave DE [log2] (C3A treated with steroid) (Clone ID 2025128): 1.20 log2 | Ave DE [log2] (C3A treated with steroid) (Clone ID 2046717): 0.83 log2 | Ave DE [log2] (C3A treated with steroid) (Clone ID 2078880): −0.75 log2 | Ave DE [log2] (C3A treated with steroid) (Clone ID 2170820): 1.30 log2 | Ave DE [log2] (C3A treated with steroid) (Clone ID 2173002): 0.98 log2 | Ave DE [log2] (C3A treated with steroid) (Clone ID 2173973): 0.81 log2 | Ave DE [log2] (C3A treated with steroid) (Clone ID 2189061): 0.23 log2 | Ave DE [log2] (C3A treated with steroid) (Clone ID 2222155): 0.50 log2 | Ave DE [log2] (C3A treated with steroid) (Clone ID 2343836): 0.63 log2 | Ave DE [log2] (C3A treated with steroid) (Clone ID 2404746): 1.46 log2 | Ave DE [log2] (C3A treated with steroid) (Clone ID 2407620): 0.02 log2 | Ave DE [log2] (C3A treated with steroid) (Clone ID 2430165): 0.68 log2 | Ave DE [log2] (C3A treated with steroid) (Clone ID 2482388): 1.14 log2 | Ave DE [log2] (C3A treated with steroid) (Clone ID 2660756): 1.26 log2 | Ave DE [log2] (C3A treated with steroid) (Clone ID 2687356): 1.23 log2 | Ave DE [log2] (C3A treated with steroid) (Clone ID 2695371): 0.95 log2 | Ave DE [log2] (C3A treated with steroid) (Clone ID 2703282): −0.85 log2 | Ave DE [log2] (C3A treated with steroid) (Clone ID 2734007): 1.04 log2 | Ave DE [log2] (C3A treated with steroid) (Clone ID 2753065): 0.75 log2 | Ave DE [log2] (C3A treated with steroid) (Clone ID 3229449): 1.05 log2 | Ave DE [log2] (C3A treated with steroid) (Clone ID 3474091): 0.23 log2 | Ave DE [log2] (C3A treated with steroid) (Clone ID 3528232): 0.80 log2 | Ave DE [log2] (C3A treated with steroid) (Clone ID 3729593): 0.55 log2 | Ave DE [log2] (C3A treated with steroid) (Clone ID 3876612): 0.19 log2 | Ave DE [log2] (C3A treated with steroid) (Clone ID 3973687): 1.47 log2 | Ave DE [log2] (C3A treated with steroid) (Clone ID 4087621): 1.09 log2 | Ave DE [log2] (C3A treated with steroid) (Clone ID 4215034): 1.50 log2 | Ave DE [log2] (C3A treated with steroid) (Clone ID 4403805): 1.19 log2 | Ave DE [log2] (C3A treated with steroid) (Clone ID 4855265): 1.24 log2 | Ave DE [log2] (C3A treated with steroid) (Clone ID 5206821): 0.50 log2 | Ave DE [log2] (C3A treated with steroid) (Clone ID 5398701): 1.10 log2 | Ave DE [log2] (C3A treated with steroid) (Clone ID 5521873): 0.77 log2 | Ave DE [log2] (C3A treated with steroid) (Clone ID 5543385): 1.15 log2

CCCC1O[C@@H]2C[C@H]3[C@@H]4CCC5=CC(=O)C=C[C@]5(C)[C@H]4[C@@H](O)C[C@]3(C)[C@]2(C(=O)CO)O1 (stereo partly drawn) [budesonide]
Ave DE [log2] (C3A treated with steroid) (Clone ID 380006): −1.05 log2 | Ave DE [log2] (C3A treated with steroid) (Clone ID 517374): 1.04 log2 | Ave DE [log2] (C3A treated with steroid) (Clone ID 615776): 1.06 log2 | Ave DE [log2] (C3A treated with steroid) (Clone ID 622565): 1.20 log2 | Ave DE [log2] (C3A treated with steroid) (Clone ID 654246): −1.08 log2 | Ave DE [log2] (C3A treated with steroid) (Clone ID 686993): 0.51 log2 | Ave DE [log2] (C3A treated with steroid) (Clone ID 689296): 1.08 log2 and 1.05 log2 | Ave DE [log2] (C3A treated with steroid) (Clone ID 1401312): −1.09 log2 | Ave DE [log2] (C3A treated with steroid) (Clone ID 1604437): 1.18 log2 | Ave DE [log2] (C3A treated with steroid) (Clone ID 1611629): 1.19 log2 | Ave DE [log2] (C3A treated with steroid) (Clone ID 1662870): −0.93 log2 | Ave DE [log2] (C3A treated with steroid) (Clone ID 1679595): 1.10 log2 | Ave DE [log2] (C3A treated with steroid) (Clone ID 1697719): −0.81 log2 | Ave DE [log2] (C3A treated with steroid) (Clone ID 1716458): 1.24 log2 | Ave DE [log2] (C3A treated with steroid) (Clone ID 1798594): 0.69 log2 | Ave DE [log2] (C3A treated with steroid) (Clone ID 1823946): −1.10 log2 | Ave DE [log2] (C3A treated with steroid) (Clone ID 1876829): −1.13 log2 | Ave DE [log2] (C3A treated with steroid) (Clone ID 1930847): −1.09 log2 | Ave DE [log2] (C3A treated with steroid) (Clone ID 1973123): −1.23 log2 | Ave DE [log2] (C3A treated with steroid) (Clone ID 2057513): 1.13 log2 | Ave DE [log2] (C3A treated with steroid) (Clone ID 2078880): −0.80 log2 | Ave DE [log2] (C3A treated with steroid) (Clone ID 2170820): 1.17 log2 | Ave DE [log2] (C3A treated with steroid) (Clone ID 2173973): 1.08 log2 | Ave DE [log2] (C3A treated with steroid) (Clone ID 2189061): 0.15 log2 | Ave DE [log2] (C3A treated with steroid) (Clone ID 2222155): 0.58 log2 | Ave DE [log2] (C3A treated with steroid) (Clone ID 2227273): 1.05 log2 | Ave DE [log2] (C3A treated with steroid) (Clone ID 2287724): −1.06 log2 | Ave DE [log2] (C3A treated with steroid) (Clone ID 2343836): 0.93 log2 | Ave DE [log2] (C3A treated with steroid) (Clone ID 2404746): 0.42 log2 | Ave DE [log2] (C3A treated with steroid) (Clone ID 2482388): 1.19 log2 | Ave DE [log2] (C3A treated with steroid) (Clone ID 2660756): 1.13 log2 | Ave DE [log2] (C3A treated with steroid) (Clone ID 2687356): 1.26 log2 | Ave DE [log2] (C3A treated with steroid) (Clone ID 2703282): −1.01 log2 | Ave DE [log2] (C3A treated with steroid) (Clone ID 3139631): −0.97 log2 | Ave DE [log2] (C3A treated with steroid) (Clone ID 3229449): 0.39 log2 | Ave DE [log2] (C3A treated with steroid) (Clone ID 3408804): −1.24 log2 | Ave DE [log2] (C3A treated with steroid) (Clone ID 3426776): 0.61 log2 | Ave DE [log2] (C3A treated with steroid) (Clone ID 3449615): 1.05 log2 | Ave DE [log2] (C3A treated with steroid) (Clone ID 3497137): −0.94 log2 | Ave DE [log2] (C3A treated with steroid) (Clone ID 3687607): 1.17 log2 | Ave DE [log2] (C3A treated with steroid) (Clone ID 3721985): −1.10 log2 | Ave DE [log2] (C3A treated with steroid) (Clone ID 3770530): −0.98 log2 | Ave DE [log2] (C3A treated with steroid) (Clone ID 3973687): 1.31 log2 | Ave DE [log2] (C3A treated with steroid) (Clone ID 4089291): −1.00 log2 | Ave DE [log2] (C3A treated with steroid) (Clone ID 4215034): 1.20 log2 | Ave DE [log2] (C3A treated with steroid) (Clone ID 4252872): 1.24 log2 | Ave DE [log2] (C3A treated with steroid) (Clone ID 4403805): 1.12 log2 | Ave DE [log2] (C3A treated with steroid) (Clone ID 4630674): 0.97 log2 | Ave DE [log2] (C3A treated with steroid) (Clone ID 4855265): 1.14 log2 | Ave DE [log2] (C3A treated with steroid) (Clone ID 4863677): 1.11 log2 | Ave DE [log2] (C3A treated with steroid) (Clone ID 5038177): 0.57 log2 | Ave DE [log2] (C3A treated with steroid) (Clone ID 5102951): 0.84 log2 | Ave DE [log2] (C3A treated with steroid) (Clone ID 5326983): 0.94 log2
